# Paper PMC11827853, “C2230, a preferential use- and state-dependent CaV2.2 channel blocker, mitigates pain behaviors across multiple pain models” (The Journal of Clinical Investigation, 2024)
# Legend:
# [1] = tested on: T1, CaV1.2; assay: patch-clamp of heterologously expressed channel, Vh -80 mV ([…] at -50 mV); type: cell-based
# T1 construct: gene CACNA1C
# [2] = biological target: T2, CaV2.2 (N-type) calcium channel (Rattus norvegicus, UniProt Q02294); assay: patch-clamp in HEK293 cells expressing the channel, Vh -50 mV ([…] at -80 mV); type: cell-based
# T2 construct: gene Cacna1b
# T2 sequence (Q02294 whole entry): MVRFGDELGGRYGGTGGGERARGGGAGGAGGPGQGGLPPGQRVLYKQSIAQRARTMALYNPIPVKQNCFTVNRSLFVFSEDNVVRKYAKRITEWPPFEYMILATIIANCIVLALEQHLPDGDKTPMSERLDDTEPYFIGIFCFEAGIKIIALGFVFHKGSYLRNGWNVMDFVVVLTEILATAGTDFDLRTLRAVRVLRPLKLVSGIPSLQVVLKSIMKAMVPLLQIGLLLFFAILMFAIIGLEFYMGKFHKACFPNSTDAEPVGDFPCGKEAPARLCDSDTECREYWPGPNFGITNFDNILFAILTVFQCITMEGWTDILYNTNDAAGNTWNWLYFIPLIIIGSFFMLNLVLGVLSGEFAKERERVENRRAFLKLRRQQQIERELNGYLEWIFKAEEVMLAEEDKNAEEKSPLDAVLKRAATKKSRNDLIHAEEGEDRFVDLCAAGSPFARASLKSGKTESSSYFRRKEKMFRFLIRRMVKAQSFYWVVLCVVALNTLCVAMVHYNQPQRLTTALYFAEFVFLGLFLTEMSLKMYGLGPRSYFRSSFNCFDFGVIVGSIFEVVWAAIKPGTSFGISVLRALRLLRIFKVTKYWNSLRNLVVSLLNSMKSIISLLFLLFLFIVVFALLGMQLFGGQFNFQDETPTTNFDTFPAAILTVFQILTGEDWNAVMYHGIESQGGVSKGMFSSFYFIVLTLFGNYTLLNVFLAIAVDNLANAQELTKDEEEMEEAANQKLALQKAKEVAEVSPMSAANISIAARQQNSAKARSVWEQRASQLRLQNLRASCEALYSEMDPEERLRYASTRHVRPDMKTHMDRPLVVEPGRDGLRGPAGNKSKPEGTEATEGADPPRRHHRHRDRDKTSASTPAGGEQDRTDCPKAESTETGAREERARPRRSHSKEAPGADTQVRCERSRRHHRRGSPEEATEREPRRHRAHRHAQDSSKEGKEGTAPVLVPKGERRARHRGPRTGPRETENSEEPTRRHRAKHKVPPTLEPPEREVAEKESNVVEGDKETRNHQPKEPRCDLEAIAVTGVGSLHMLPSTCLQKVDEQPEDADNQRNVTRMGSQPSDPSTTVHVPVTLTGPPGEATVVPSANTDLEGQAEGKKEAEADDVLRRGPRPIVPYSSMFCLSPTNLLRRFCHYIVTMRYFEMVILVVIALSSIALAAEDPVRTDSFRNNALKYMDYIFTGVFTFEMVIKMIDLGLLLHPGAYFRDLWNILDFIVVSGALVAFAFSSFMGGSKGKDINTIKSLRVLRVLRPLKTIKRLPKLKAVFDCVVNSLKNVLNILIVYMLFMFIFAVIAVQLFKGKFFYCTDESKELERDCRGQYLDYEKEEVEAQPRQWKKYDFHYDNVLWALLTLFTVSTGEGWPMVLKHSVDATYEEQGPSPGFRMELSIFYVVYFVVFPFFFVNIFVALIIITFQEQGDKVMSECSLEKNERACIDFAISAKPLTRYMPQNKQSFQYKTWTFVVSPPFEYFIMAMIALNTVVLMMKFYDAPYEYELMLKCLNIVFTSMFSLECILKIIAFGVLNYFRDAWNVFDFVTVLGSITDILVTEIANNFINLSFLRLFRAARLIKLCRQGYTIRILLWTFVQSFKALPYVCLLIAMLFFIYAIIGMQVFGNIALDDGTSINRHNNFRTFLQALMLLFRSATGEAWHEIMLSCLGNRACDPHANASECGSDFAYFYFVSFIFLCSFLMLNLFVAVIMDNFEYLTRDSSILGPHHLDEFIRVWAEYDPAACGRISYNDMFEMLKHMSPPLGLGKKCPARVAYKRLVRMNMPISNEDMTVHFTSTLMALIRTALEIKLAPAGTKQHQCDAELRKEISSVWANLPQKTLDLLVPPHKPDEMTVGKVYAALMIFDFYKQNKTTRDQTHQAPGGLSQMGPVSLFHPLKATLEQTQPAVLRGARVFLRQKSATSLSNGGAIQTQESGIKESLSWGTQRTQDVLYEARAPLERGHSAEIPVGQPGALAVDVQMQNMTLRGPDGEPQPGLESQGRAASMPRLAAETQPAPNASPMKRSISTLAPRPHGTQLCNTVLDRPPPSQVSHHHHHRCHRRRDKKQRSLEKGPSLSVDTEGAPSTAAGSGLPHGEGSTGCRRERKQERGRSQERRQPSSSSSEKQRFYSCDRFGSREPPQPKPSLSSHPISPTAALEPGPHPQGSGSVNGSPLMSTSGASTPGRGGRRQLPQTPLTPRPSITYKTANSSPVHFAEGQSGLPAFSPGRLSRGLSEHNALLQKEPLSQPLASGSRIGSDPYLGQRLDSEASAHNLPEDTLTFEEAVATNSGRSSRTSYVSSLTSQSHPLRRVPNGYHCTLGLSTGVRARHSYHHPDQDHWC
structure (smiles),measurement,setting,value
"COc1ccc(OCC(O)CNC2CCCC2)c(C(C)(C)C)c1 (racemic) [C2230, 1-(2-tert-butyl-4-methoxyphenoxy)-3-(cyclopentylamino)propan-2-ol]",IC50,[1],22.7 ± 6.3 µM
same,IC50,[2],1.3 ± 0.1 µM
